Like-named read-outs stand apart in the source and are kept apart here.
Tests used:
[1] = target: T1, NEP (Rattus norvegicus, UniProt P07861); assay: NEP resistance in vivo: influence of NEP inhibitor on pharmacokinetic parameters after intravenous administration; details: for AUC(0-inf) / C0 / half-life: male, SD, rat, in vivo, iv, 0.02 mg/kg, intravenous 0.02 mg/kg, male rats, N = 3; for AUC(0-inf): read-out: AUC0→∞ (converted); for C0: read-out: C0; for half-life: read-out: T½
T1 construct: male SD strain rats of 7 weeks age (Nippon Charles River; body weight: ca. 250 g) were used; from tissue; host or cells: whole animal: male SD rats (Nippon Charles River), in vivo
T1 sequence (P07861 1-750): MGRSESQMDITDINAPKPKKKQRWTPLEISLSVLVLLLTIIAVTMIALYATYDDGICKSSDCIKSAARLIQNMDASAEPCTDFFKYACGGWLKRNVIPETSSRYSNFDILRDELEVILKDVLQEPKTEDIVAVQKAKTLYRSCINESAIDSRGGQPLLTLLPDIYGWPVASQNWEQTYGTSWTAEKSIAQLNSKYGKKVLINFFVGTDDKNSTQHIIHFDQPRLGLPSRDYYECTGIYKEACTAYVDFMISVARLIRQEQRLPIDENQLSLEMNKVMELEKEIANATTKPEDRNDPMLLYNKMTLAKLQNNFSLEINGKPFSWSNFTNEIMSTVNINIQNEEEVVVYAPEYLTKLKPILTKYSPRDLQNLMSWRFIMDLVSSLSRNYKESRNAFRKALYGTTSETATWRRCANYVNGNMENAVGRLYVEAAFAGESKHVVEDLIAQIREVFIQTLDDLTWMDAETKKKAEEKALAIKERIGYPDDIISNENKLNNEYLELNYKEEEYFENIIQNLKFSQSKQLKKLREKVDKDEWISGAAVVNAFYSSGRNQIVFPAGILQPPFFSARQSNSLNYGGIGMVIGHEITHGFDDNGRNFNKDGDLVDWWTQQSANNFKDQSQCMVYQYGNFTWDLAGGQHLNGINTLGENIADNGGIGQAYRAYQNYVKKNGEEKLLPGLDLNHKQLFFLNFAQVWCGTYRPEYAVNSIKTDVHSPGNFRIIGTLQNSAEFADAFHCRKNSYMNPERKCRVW
Description: Further, NEP resistance in vivo of the native CNP-22 and chimeric CNP (B) was evaluated using the effect by the joint use with an NEP inhibitor affecting on changes in CNP immunoreactivity concentration in plasma after the intravenous administration as an index. This test was also carried out using rats into which a polyethylene tube (PE-50, manufactured by Clay […].) was inserted into thigh artery for collection of blood and rats into which a polyethylene tube (PE-10, manufactured by Clay […].) was inserted into thigh vein for administration of an NEP inhibitor under an anesthetizing condition using Nembutal. As a test system, male SD strain rats of 7 weeks age (Nippon Charles River; body weight: ca. 250 g) were used for the experiment where one group comprised 3 rats. […] Time for the administration was from 10 minutes before the administration of the native CNP-22 or the chimeric CNP (B) to completion of blood collection which was 60 minutes after the administration. The native CNP-22 and the chimeric CNP (B) each was administered into the tail vein in a dose of 20 μg/kg and the blood before starting the administration of NEP inhibitor (-10 minutes), before the administration of CNP (0 minute) and until after 60 minutes from the administration was collected by a thigh artery cannula. After a stabilizer and an anticoagulant were added to the collected blood, it was centrifuged to give plasma and the immunoreactivity concentration in the plasma was measured by the above-mentioned competitive RIA. The pharmacokinetic analysis was carried out by the same method as in Example 1.

[2] = target: T2, neutral endopeptidase (NEP) (Homo sapiens, UniProt P08473); assay: Resistance to peptidase: stability to hNEP (HPLC residual rate); format: in vitro ADME; details: human, isolated enzyme neprilysin; hNEP, 37° C., 1 hour, 0.5 μg/mL, 20 mM MES pH 6.5, mean of N = 2; read-out: Residual Rate
T2 construct: purchased R&D Systems, Inc., U.S.A
Description: (§1) The experiment was conducted in N=2 for each sample. Native CNP-22, chimeric CNP (A, B) (structure mentioned already; final concentration: 0.5 μg/mL) and 100 μL of reaction solution (medium: 20 mM MES, pH 6.5) of human type recombinant neutral endopeptidase (hNEP, manufactured by R&D Systems, Inc., U.S.A.) were prepared. […] Distilled water (100 μL) was added to the sample after boiling followed by well mixing and 50 μL thereof was analyzed in a water-acetonitrile system using a high-performance liquid chromatography system LC-10A (manufactured by Shimadzu). The analytical data were analyzed by a Chromato-Pack (CRA-10A, manufactured by Shimadzu) and area of the peak zone of unchanged substance was calculated. The area of average zone of unchanged substance when made to react at 37° C. was divided by the area of average zone of the boiled sample to calculate the residual rate of the unchanged substance after 1 hour.

[3] = target: T3, human type recombinant neutral endopeptidase (hNEP) (Homo sapiens, UniProt P08473); assay: as above; format: in vitro ADME; details: hNEP, 37° C., 1 hour, 0.5 μg/mL, 20 mM MES pH 6.5, mean of N = 2
T3 construct: purchased R&D Systems, Inc., U.S.A
Description: as §1

[4] = Antigenicity by indirect ELISA of serum after repeated administration; format: in vivo; details: 0.25 mg/kg subcutaneous twice daily for 29 days, mouse serum
Description: In order to investigate whether an antibody to native CNP-22 or chimeric CNP (B) was produced using serum collected from the mice after completion of repeated administration for four weeks in Example 4, antigenicity of each of them was evaluated by means of an indirect ELISA. A peptide solution (100 μL) adjusted to 1.0 ng/μL using 50 mM of […] at pH 8.5 was added to a 96-well plate (manufactured by Nalge Nunc International; Denmark) treated with Maxisoap and subjected to a coating operation overnight at 4° C. A blocking was carried out at room temperature for 1 hour using a 2.0% Block Ace (manufactured by Snow Brand Milk). […] After washing the wells, an anti-mouse IgG HRPAb (manufactured by Zymed Laboratories, U.S.A.) was added thereto. The antigen-antibody reaction was conducted for 1 hour at room temperature, then the wells were washed and a substrate ABTS (manufactured by KPL, U.S.A.) was added thereto.

T3 sequence (P08473 whole entry): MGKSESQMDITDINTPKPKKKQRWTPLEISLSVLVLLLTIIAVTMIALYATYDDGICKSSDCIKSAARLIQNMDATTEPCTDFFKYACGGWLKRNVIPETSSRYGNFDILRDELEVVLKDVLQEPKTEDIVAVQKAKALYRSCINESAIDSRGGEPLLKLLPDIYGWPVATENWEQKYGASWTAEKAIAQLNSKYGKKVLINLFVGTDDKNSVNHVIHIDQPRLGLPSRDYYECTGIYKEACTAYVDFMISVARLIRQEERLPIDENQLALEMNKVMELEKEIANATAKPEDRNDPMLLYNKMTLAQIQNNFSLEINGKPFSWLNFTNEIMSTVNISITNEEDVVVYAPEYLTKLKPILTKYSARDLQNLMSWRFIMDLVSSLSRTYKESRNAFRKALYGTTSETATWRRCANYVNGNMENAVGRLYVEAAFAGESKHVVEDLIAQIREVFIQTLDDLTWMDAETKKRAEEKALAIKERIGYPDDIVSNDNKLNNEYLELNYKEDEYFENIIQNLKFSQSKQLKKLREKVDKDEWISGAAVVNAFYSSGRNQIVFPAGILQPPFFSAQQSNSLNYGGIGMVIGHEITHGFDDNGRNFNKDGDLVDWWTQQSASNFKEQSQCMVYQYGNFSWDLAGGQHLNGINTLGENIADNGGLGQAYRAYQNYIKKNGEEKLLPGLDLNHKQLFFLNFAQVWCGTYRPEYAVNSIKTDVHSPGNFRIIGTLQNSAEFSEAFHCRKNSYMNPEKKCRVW
T2 sequence (P08473 whole entry): as above

CC[C@H](C)[C@@H]1NC(=O)[C@H](CCCNC(=N)N)NC(=O)[C@H](CC(=O)O)NC(=O)[C@H](CC(C)C)NC(=O)[C@H](CCCCN)NC(=O)[C@H](CC(C)C)NC(=O)CNC(=O)[C@H](Cc2ccccc2)NC(=O)[C@@H](NC(=O)CNC(=O)[C@H](CCCCN)NC(=O)[C@H](CO)NC(=O)[C@H](CC(C)C)NC(=O)CN)CSSC[C@@H](C(=O)O)NC(=O)CNC(=O)[C@H](CC(C)C)NC(=O)CNC(=O)[C@H](CO)NC(=O)[C@H](CCSC)NC(=O)[C@H](CO)NC(=O)CNC1=O [Native CNP-22]
AUC with NEP inhibitor as compared with the case where the inhibitor was not used ([1]; intravenous, rats): about 3.7 fold | half-life with NEP inhibitor as compared with the case where the inhibitor was not used ([1]; intravenous, rats): about 5 fold | AUC(0-inf) ([1]; NEP Inhibitor (+)): 12.6 ng·h/mL | C0 ([1]; NEP Inhibitor (+)): 131 ± 32 ng/mL | half-life ([1]; NEP Inhibitor (+)): 9.94 ± 1.4 min | AUC(0-inf) ([1]; NEP Inhibitor (−)): 3.37 ng·h/mL | C0 ([1]; NEP Inhibitor (−)): 145 ± 20 ng/mL | half-life ([1]; NEP Inhibitor (−)): 1.96 ± 0.05 min | remaining at 1 h, 0.5 μg/mL [2]: 16.7% | Residual Rate [3]: 16.7% | antibody value [4]: no rise
